Test results from patent US20220395559A1, “SOLID COMPOSITIONS COMPRISING A GLP-1 AGONIST, AN SGLT2 INHIBITOR AND A SALT OF N-(8-(2-HYDROXYBENZOYL)AMINO)CAPRYLIC ACID” (Novo Nordisk A/S, priority 2019, published 2022).
Read-outs that look alike come from different tables or passages of the source.

Key:
[1] = pH 6
[2] = SNAC solubility vs SNAC control, hydrotrope 200 mg/mL, pH 6
[3] = hydrotrope 200 mg/mL in water, pH 6, room temperature, 4 hours incubation

## O=C(O[C@@H]1Cc2c(O)cc(O)cc2O[C@@H]1c1cc(O)c(O)c(O)c1)c1cc(O)c(O)c(O)c1 [Epigallocatechin gallate]
[2]
  Fold increase in solubility: 9.6
[3]
  SNAC concentration: 5.66 mg/mL

## CN(C)C(=O)c1ccccc1 [N,N dimethyl benzamide]
[2]
  Fold increase in solubility: 38
[3]
  SNAC concentration: 22.46 mg/mL

## NC(N)=O [Urea]
[2]
  Fold increase in solubility: 1.3
[3]
  SNAC concentration: 0.77 mg/mL

## CCN(CC)C(=O)c1cccnc1 [N,N diethyl nicotinamide]
[2]
  Fold increase in solubility: 7.8
[3]
  SNAC concentration: 4.58 mg/mL

## NC(=O)c1cccnc1 [Nicotinamide]
[1]
  effect on SNAC solubility (FIG. 1): dose dependent effect

## O=C([O-])c1ccccc1O.[Na+] [Sodium salicylate]
pH 6
  Fold increase in solubility: 2.7
  SNAC concentration: 1.59 mg/mL
